The results in this text go back to patent US20260200946A1, “KRAS(G12V) INHIBITORS” (Ranok Therapeutics (Hangzhou) Co. Ltd., priority 2022, published 2026).

Bounds are passed on as bounds.

For this test, the system named is NCIH727 cells. In words: Cancer cell line proliferation (CellTiter-Glo), NCI-H727. The format is cell-based. Conditions: NCIH727 lung carcinoid, heterozygous G12V. How it is done: Cell lines were cultured essentially according to ATCC recommendations.
SW620 and NCIH727 cells were plated in 384-well tissue culture plates at 1,000 cells/well and incubated at 37° C./5% CO2 for 72 hr in 40 μl of media. […] Each cell line was then treated with test compounds at various concentrations with a final concentration of 0.5% DMSO/well, and then incubated at 37° C./5% CO2 for 72 hr. 40 μl of CellTiter-Glo® Reagent (Promega Corporation, Madison, WI) was added to each well and processed according manufacturer's protocol. Results were analyzed and IC50 values were calculated in GraphPad 8.0 software.

As a reminder, the EC50 is the concentration needed to bring the measured effect to its halfway point. A low value points to a more potent agent. Regarding `C#Cc1c(F)ccc2cc(O)cc(-c3nc(OC)c4c(N5CC6CCC(C5)N6C(=O)C[C@H](C)C#N)nc(OCC5(CN6CC7CC7C6)CC5)nc4c3F)c12` (single isomer, unassigned) [Example 178], the EC50 (Homo sapiens, 72 h) is 100 to 1000 nM.
Same read-out and setting: under `C#Cc1c(F)ccc2cc(O)cc(-c3nc(OC)c4c(N5CC6CCC(C5)N6C(=O)C5(F)CC5)nc(OCC5(CN6CCC(F)CC6)CC5)nc4c3F)c12` [Example 66] stands 100 to 1000 nM; under `C#Cc1c(F)ccc2cc(O)cc(-c3nc(OC)c4c(N5CC6CCC(C5)N6C(=O)NCC(C)(C)F)nc(OCC5(CN6CCC(F)CC6)CC5)nc4c3F)c12` [Example 67], 100 to 1000 nM.
The same measure, in the same setting: under `C#Cc1c(F)ccc2cc(O)cc(-c3nc(OC)c4c(N5CC6CCC(C5)N6C(=O)N[C@H]5C[C@H]5F)nc(OCC5(CN6CCC(F)CC6)CC5)nc4c3F)c12` [Example 68] stands more than 1000 nM.
Same read-out and setting: the result for `C#Cc1c(F)ccc2cc(O)cc(-c3nc(OC)c4c(N5CC6CCC(C5)N6C(=O)[C@H]5CC5(F)F)nc(OCC5(CN6CCC(F)CC6)CC5)nc4c3F)c12` [Example 69] reads less than 100 nM; that for `C#Cc1c(F)ccc2cc(O)cc(-c3nc(OC)c4c(N5CC6CCC(C5)N6CC5COC5)nc(OCC5(CN6CCC(F)CC6)CC5)nc4c3F)c12` [Example 70], more than 1000 nM; that for `C#Cc1c(F)ccc2cc(O)cc(-c3nc(OC)c4c(N5CC6CCC(C5)N6C(=O)[C@@H]5CC5(F)F)nc(OCC5(CN6CCC(F)CC6)CC5)nc4c3F)c12` [Example 72], 100 to 1000 nM.
Take `C#Cc1c(F)ccc2cc(O)cc(-c3nc(OC)c4c(N5CC6CCC(C5)N6C(=O)N[C@@H]5C[C@H]5F)nc(OCC5(CN6CCC(F)CC6)CC5)nc4c3F)c12` [Example 73]: the EC50 (Homo sapiens, 72 h) is 100 to 1000 nM.
In the case of `C#Cc1c(F)ccc2cc(O)cc(-c3nc(C#C)c4c(N5CC6CCC(C5)N6C(=O)NC(C)(C)C)nc(OCC5(CN6CCC(F)CC6)CC5)nc4c3F)c12` [Example 74], for the setting “Homo sapiens, 72 h”, the EC50 is 100 to 1000 nM.
On the same count and under the same terms, the result for `C#Cc1c(F)ccc2cc(O)cc(-c3nc(OC)c4c(N5CC6CCC(C5)N6C(=O)NCC5(F)COC5)nc(OCC5(CN6CCC(F)CC6)CC5)nc4c3F)c12` [Example 75] reads 100 to 1000 nM.
As to `C#Cc1c(F)ccc2cc(O)cc(-c3nc(OC)c4c(N5CC6CCC(C5)N6C(=O)NCC(F)(F)CO)nc(OCC5(CN6CCC(F)CC6)CC5)nc4c3F)c12` [Example 76], the EC50 (Homo sapiens, 72 h) lay in the range of 100 to 1000 nM.
Compound `C#Cc1c(F)ccc2cc(O)cc(-c3nc(OC)c4c(N5CC6CCC(C5)N6C(=O)C5C[C@H]5F)nc(OCC5(CN6CCC(F)CC6)CC5)nc4c3F)c12` (some centres unmarked) [Example 77] showed an EC50 (Homo sapiens, 72 h) of less than 100 nM.
The compound `C#Cc1c(F)ccc2cc(O)cc(-c3nc(OC)c4c(N5CC6CCC(C5)N6C(=O)[C@H]5C[C@@H]5F)nc(OCC5(CN6CCC(F)CC6)CC5)nc4c3F)c12` [Example 78] gave an EC50 (Homo sapiens, 72 h) of 100 to 1000 nM.
On the same count and under the same terms, under `C#Cc1c(F)ccc2cc(O)cc(-c3nc(OC)c4c(N5CC6CCC(C5)N6C(=O)NC5CCC(F)(F)C5)nc(OCC5(CN6CCC(F)CC6)CC5)nc4c3F)c12` (centres unmarked) [Example 79] stands 100 to 1000 nM.
On to `C#Cc1c(F)ccc2cc(O)cc(-c3nc(OC)c4c(N5CC6CCC(C5)N6C(=O)C5C[C@H]5C#N)nc(OCC5(CN6CCC(F)CC6)CC5)nc4c3F)c12` (some centres unmarked) [Example 80], for which, where the note is “Homo sapiens, 72 h”, the EC50 is less than 100 nM.
On the same count and under the same terms, the result for `C#Cc1c(F)ccc2cc(O)cc(-c3nc(OC)c4c(N5CC6CCC(C5)N6C(=O)N[C@H]5CCC(F)(F)C5)nc(OCC5(CN6CCC(F)CC6)CC5)nc4c3F)c12` [Example 81] reads less than 100 nM; that for `C#Cc1c(F)ccc2cc(O)cc(-c3nc(OC)c4c(N5CC6CCC(C5)N6C(=O)N[C@@H]5CCC(F)(F)C5)nc(OCC5(CN6CCC(F)CC6)CC5)nc4c3F)c12` [Example 82], 100 to 1000 nM.
Under “72 hr”, `C#Cc1c(F)ccc2cc(O)cc(-c3nc(OC)c4c(N5CC6CCC(C5)N6C(=O)C5C[C@H]5C#N)nc(OCC5(CN6CCC(F)CC6)CC5)nc4c3F)c12` (some centres unmarked) [Example 83] yielded an EC50 of 100 to 1000 nM.
Under “72 hr”, `C#Cc1c(F)ccc2cc(O)cc(-c3nc(OC)c4c(N5CC6CCC(C5)N6C(=O)C5C[C@H]5C#N)nc(OCC5(CN6CCC(F)CC6)CC5)nc4c3F)c12` (some centres unmarked) [Example 84] came in with an EC50 of less than 100 nM.
On to `C#Cc1c(F)ccc2cc(O)cc(-c3nc(OC)c4c(N5CC6CCC(C5)N6C(=N)NCC(F)(F)F)nc(OCC5(CN6CCC(F)CC6)CC5)nc4c3F)c12` [Example 85], for which, under “Homo sapiens, 72 h”, the EC50 is more than 1000 nM.
The same measure, in the same setting: under `C#Cc1c(F)ccc2cc(O)cc(-c3nc(OC)c4c(N5CC6CCC(C5)N6C(=O)NC5CC5(F)F)nc(OCC5(CN6CCC(F)CC6)CC5)nc4c3F)c12` (centres unmarked) [Example 86] stands 100 to 1000 nM.
Same read-out and setting: under `C#Cc1c(F)ccc2cc(O)cc(-c3nc(OC)c4c(N5CC6CCC(C5)N6C(=O)NC5CC[C@@H](F)C5)nc(OCC5(CN6CCC(F)CC6)CC5)nc4c3F)c12` (some centres unmarked) [Example 87] stands 100 to 1000 nM; under `C#CCNC(=O)N1C2CCC1CN(c1nc(OCC3(CN4CCC(F)CC4)CC3)nc3c(F)c(-c4cc(O)cc5ccc(F)c(C#C)c45)nc(OC)c13)C2` [Example 88], less than 100 nM; under `C#Cc1c(F)ccc2cc(O)cc(-c3nc(OC)c4c(N5CC6CCC(C5)N6C(=O)NC5CCC5)nc(OCC5(CN6CCC(F)CC6)CC5)nc4c3F)c12` [Example 89], less than 100 nM.
`C#Cc1c(F)ccc2cc(O)cc(-c3nc(OC)c4c(N5CC6CCC(C5)N6C(=O)Nc5cc(F)cc(F)c5)nc(OCC5(CN6CCC(F)CC6)CC5)nc4c3F)c12` [Example 90] yielded an EC50 (Homo sapiens, 72 h) of 100 to 1000 nM.
Still for that read-out and setting: under `C#Cc1c(F)ccc2cc(O)cc(-c3nc(OC)c4c(N5CC6CCC(C5)N6C(=O)NC5CC(F)C5)nc(OCC5(CN6CCC(F)CC6)CC5)nc4c3F)c12` (centres unmarked) [Example 91] stands less than 100 nM.
Under “72 hr”, `C#Cc1c(F)ccc2cc(O)cc(-c3nc(OC)c4c(N5CC6CCC(C5)N6C(=O)NC5CC(F)C5)nc(OCC5(CN6CCC(F)CC6)CC5)nc4c3F)c12` (centres unmarked) [Example 92] yielded an EC50 of 100 to 1000 nM.
For `C#Cc1c(F)ccc2cc(O)cc(-c3nc(OC)c4c(N5CC6CCC(C5)N6C(=O)NC(C)C#N)nc(OCC5(CN6CCC(=C)CC6)CC5)nc4c3F)c12` (centres unmarked) [Example 93], the EC50 (Homo sapiens, 72 h) is less than 100 nM.
With `C#Cc1c(F)ccc2cc(O)cc(-c3nc(C#C)c4c(N5CC6CCC(C5)N6C(=O)C5CC5(F)F)nc(OCC5(CN6CCC(F)CC6)CC5)nc4c3F)c12` (centres unmarked) [Example 94], the EC50 (Homo sapiens, 72 h) was in the range of 100 to 1000 nM.
As for `C#Cc1c(F)ccc2cc(O)cc(-c3nc(C#C)c4c(N5CC6CCC(C5)N6C(=O)NC5CC5)nc(OCC5(CN6CCC(F)CC6)CC5)nc4c3F)c12` [Example 95], where the note is “Homo sapiens, 72 h”, the EC50 was in the range of 100 to 1000 nM.
Still for that read-out and setting: the result for `C#CCNC(=O)N1C2CCC1CN(c1nc(OCC3(CN4CCC(F)CC4)CC3)nc3c(F)c(-c4cc(O)cc5ccc(F)c(C#C)c45)nc(C#C)c13)C2` [Example 96] reads 100 to 1000 nM; that for `C#Cc1c(F)ccc2cc(O)cc(-c3nc(OC)c4c(N5CC6CCC(C5)N6C(=O)Nc5ccc6c(c5)CCO6)nc(OCC5(CN6CCC(F)CC6)CC5)nc4c3F)c12` [Example 97], 100 to 1000 nM.
Same read-out and setting: the result for `C#Cc1c(F)ccc2cc(O)cc(-c3nc(C#C)c4c(N5CC6CCC(C5)N6C(=O)NCC(F)(F)F)nc(OCC5(CN6CCC(F)CC6)CC5)nc4c3F)c12` [Example 100] reads 100 to 1000 nM; that for `C#Cc1c(F)ccc2cc(O)cc(-c3nc(OC)c4c(N5CC6CCC(C5)N6C(=O)[C@H]5CC5(F)F)nc(OCC5(CN6CC7CC7C6)CC5)nc4c3F)c12` (some centres unmarked) [Example 102], less than 100 nM.
Same read-out and setting: the result for `C#Cc1c(F)ccc2cc(O)cc(-c3nc(C#C)c4c(N5CC6CCC(C5)N6C(=O)CCC#N)nc(OCC5(CN6CCC(F)CC6)CC5)nc4c3F)c12` [Example 103] reads 100 to 1000 nM; that for `C#Cc1c(F)ccc2cc(O)cc(-c3nc(OC)c4c(N5CC6CCC(C5)N6C(=O)COC)nc(OCC5(CN6CC7CC7C6)CC5)nc4c3F)c12` (centres unmarked) [Example 106], 100 to 1000 nM.
Regarding `C#Cc1c(F)ccc2cc(O)cc(-c3nc(OC)c4c(N5CC6CCC(C5)N6C(=O)CCN(C)C)nc(OCC5(CN6CC7CC7C6)CC5)nc4c3F)c12` (centres unmarked) [Example 107], the EC50 (Homo sapiens, 72 h) is more than 1000 nM.
Still for that read-out and setting: under `C#Cc1c(F)ccc2cc(O)cc(-c3nc(OC)c4c(N5CC6CCC(C5)N6C(=O)CCOC)nc(OCC5(CN6CC7CC7C6)CC5)nc4c3F)c12` (centres unmarked) [Example 108] stands 100 to 1000 nM; under `C#Cc1c(F)ccc2cc(O)cc(-c3nc(OC)c4c(N5CC6CCC(C5)N6C(=O)N(C)CC#N)nc(OCC5(CN6CC7CC7C6)CC5)nc4c3F)c12` (centres unmarked) [Example 110], more than 1000 nM.
Still for that read-out and setting: under `C#Cc1c(F)ccc2cc(O)cc(-c3nc(OC)c4c(N5CC6CCC(C5)N6C(=O)OC(C)(C)C#N)nc(OCC5(CN6CC7CC7C6)CC5)nc4c3F)c12` (centres unmarked) [Example 111] stands less than 100 nM.
The same measure, in the same setting: under `C#Cc1c(F)ccc2cc(O)cc(-c3nc(OC)c4c(N5CC6CCC(C5)N6C(=O)C(C#N)C(C)(C)C)nc(OCC5(CN6CC7CC7C6)CC5)nc4c3F)c12` (centres unmarked) [Example 112] stands more than 1000 nM; under `C#Cc1c(F)ccc2cc(O)cc(-c3nc(OC)c4c(N5CC6CCC(C5)N6C(=O)CCCC#N)nc(OCC5(CN6CC7CC7C6)CC5)nc4c3F)c12` (centres unmarked) [Example 113], 100 to 1000 nM.
Under “Homo sapiens, 72 h”, `C#Cc1c(F)ccc2cc(O)cc(-c3nc(OC)c4c(N5CC6CCC(C5)N6C(=O)C5(C)CC5)nc(OCC5(CN6CC7CC7C6)CC5)nc4c3F)c12` (centres unmarked) [Example 114] yielded an EC50 of more than 1000 nM.
Still for that read-out and setting: the result for `C#Cc1c(F)ccc2cc(O)cc(-c3nc(OC)c4c(N5CC6CCC(C5)N6C(=O)C5(C#N)CC5)nc(OCC5(CN6CC7CC7C6)CC5)nc4c3F)c12` (centres unmarked) [Example 115] reads 100 to 1000 nM.
Still for that read-out and setting: under `C#Cc1c(F)ccc2cc(O)cc(-c3nc(OC)c4c(N5CC6CCC(C5)N6C(=O)C5(C(F)(F)F)CC5)nc(OCC5(CN6CC7CC7C6)CC5)nc4c3F)c12` (centres unmarked) [Example 116] stands more than 1000 nM; under `C#Cc1c(F)ccc2cc(O)cc(-c3nc(OC)c4c(N5CCN(C(=O)CC#N)[C@@H](CC#N)C5)nc(OCC5(CN6CC7CC7C6)CC5)nc4c3F)c12` (some centres unmarked) [Example 117], more than 1000 nM; under `C#Cc1c(F)ccc2cc(O)cc(-c3nc(OC)c4c(N5CC6CCC(C5)N6C(C)=O)nc(OCC5(CN6CC7CC7C6)CC5)nc4c3F)c12` (centres unmarked) [Example 120], 100 to 1000 nM.
